{"source": "patent US20200215016A1", "about": "“Ketone Bodies To Protect Tissues From Damage By Ionizing Radiation” (TDELTAS LIMITED, priority 2012, published 2020)", "key": {"[1]": {"assay": "Ketone ester blood metabolite levels / ketosis after administration", "assay_type": "in vivo", "conditions": "FIG. 5: 5 grams/kg dose, males", "method": "FIG. 5 is a graph illustrating ketone ester blood metabolite levels (5 grams/kg dose, males).\nTo maintain elevated blood ketone body concentrations over a 24 hour period, delayed release formulations can be used. The release of the (R)-3-hydroxybutyrate derivatives can be controlled by a number of formulation techniques. For example, techniques such as enteric coatings, film coatings, microencapsulation and the like can be used to retard release of the (R)-3-hydroxybutyrate derivatives as is known to those of ordinary skill in the art."}, "[2]": {"tested_on": "Human osteoblast cells (HOS)", "assay": "Cellular radioprotection of cultured osteoblasts exposed to 60Co gamma radiation", "assay_type": "cell-based", "conditions": "ketone ester administered after radiation", "method": "FIG. 1 is a pair of graphs illustrating cellular radioprotection by ketone esters. Human osteoblast cells (HOS) were treated with ketone esters either pre-(left panel) or post-(right panel) ^60Co gamma radiation (0.6 Gy/min). The methods used in the studies of cultured cells were the same as previously reported in Miller A. C. et al., Int. J. of Radiation Biol. 1997, 72: 211-18. The ester composition used was the mono R 3 hydroxybutyryl-R-1,3 butanediol enantiomerically enriched in the 1 position of R-1,3 butanediol. Studies were performed using cultured osteoblasts exposed to gamma radiation with and without (R)-1,3-butanediol ester of (R)-3-hydroxybutyrate as described herein to determine the effect of ketone esters on radiation damage. FIG. 1 is a pair of graphs illustrating cellular radioprotection by ketone esters in which human cultured osteoblast cells were treated pre- or post […] gamma radiation (0.6 Gy/min) with a ketone ester. FIG. 2 illustrates chromosomal protection by ketone esters. FIG. 3 is a pair of graphs illustrating protection against proton radiation after administration of ketones in which human cultured osteoblast cells were treated pre- or post-proton radiation (4 MeV) with a ketone ester. FIG. 4 is a graph illustrating ketone ester stability at pH 7. FIG. 5 is a graph illustrating ketone ester blood metabolite levels. […]"}, "HOS cells": {"tested_on": "HOS cells", "assay": "Protection of cultured osteoblasts against proton radiation (4 MeV): cell survival and DNA damage", "assay_type": "cell-based, human", "conditions": "ketone treatment prior to proton radiation (4 MeV)", "method": "FIG. 3 is a pair of graphs and images illustrating protection against proton radiation after administration of ketones. HOS cells were treated with ketone esters either pre- or post-proton radiation (4 MeV). […] The methods used in the studies of cultured cells were the same as previously reported in Miller A. C. et al., Int. J. of Radiation Biol. 1997, 72: 211-18. The ester composition used was the mono R 3 hydroxybutyryl-R-1,3 butanediol enantiomerically enriched in the 1 position of R-1,3 butanediol. Studies were performed using cultured osteoblasts exposed to gamma radiation with and without (R)-1,3-butanediol ester of (R)-3-hydroxybutyrate as described herein to determine the effect of ketone esters on radiation damage. FIG. 1 is a pair of graphs illustrating cellular radioprotection by ketone esters in which human cultured osteoblast cells were treated pre- or post […] gamma radiation (0.6 Gy/min) with a ketone ester. FIG. 2 illustrates chromosomal protection by ketone esters. FIG. 3 is a pair of graphs illustrating protection against proton radiation after administration of ketones in which human cultured osteoblast cells were treated pre- or post-proton radiation (4 MeV) with a ketone ester. FIG. 4 is a graph illustrating ketone ester stability at pH 7. FIG. 5 is a graph illustrating ketone ester blood metabolite levels. […]"}}}
{"smiles": "C[C@@H](O)CCOC(=O)C[C@@H](C)O", "note": "[ketone esters, mono R 3 hydroxybutyryl-R-1,3 butanediol]", "values": [{"measurement": "generation of ketosis", "setting": "[1]", "value": "sustained generation of ketosis over a period of hours"}, {"measurement": "cell salvage", "setting": "[2]", "value": "increases cell salvage"}, {"measurement": "cell survival", "setting": "HOS cells; FIG. 3 left graph", "value": "increased cell survival"}, {"measurement": "DNA damage", "setting": "HOS cells; FIG. 3 right graph", "value": "mitigated DNA damage"}]}
